Test results: patent US20260297679A1, “ASSAYS FOR MONITORING INHIBITION OF RNA HELICASE DHX9” (ACCENT THERAPEUTICS, INC., priority 2023, published 2026)

Tests used:
[1] = system: breast, ovarian, and lung cell lines; experiment: circBRIP1 levels in breast, ovarian, and lung cell lines; type: cell-based
Description: Cells were plated at pre-determined cell densities in 384-well cell culture plates and incubated overnight in 37° C. at 5% CO2. […] Using TaqMan Multiplex Mastermix and thermal cycle conditions for the Quant Studio Thermocycler, qPCR was carried out as described above to quantify the level of circBRIP1.
(§1) Data analysis was performed by using the QuantStudio Thermocycler software to determine threshold Ct values. ΔCt for circBRIP1 is calculated by normalizing the target gene Ct to the GAPDH housekeeping gene Ct for each sample.
The inhibition activity (% Vehicle) is calculated by the following formulas, whereas: […]
An EC50 was then calculated using a 4-parameter logistic nonlinear regression model in Scigilian Analyze or GraphPad Prism, floating both the top and bottom parameters. […]

[2] = system: human PBMC; experiment: circular and linear BRIP1 mRNA in fresh human PBMC (whole blood treated) by qPCR; type: cell-based; conditions: 24 hours, varying concentrations, FIGS. 9A-9D
Description: This study was conducted to evaluate the circular format of BRIP1 mRNA in fresh human PBMC cells by qPCR.
Human whole blood was obtained from Research Blood Components. Blood of each donor was aliquoted into vacutainer tubes containing Acid Citrate Dextrose (ACD).
Test compounds were prepared in DMSO stock solution and serially diluted. Compound (0.1% final DMSO concentration) was added to vacutainer tubes containing human whole blood. Tubes were placed in tube rotator and incubated at 37 C for 24 hours.
PBMCs were isolated from human whole blood after compound treatment by density gradient centrifugation using Ficoll-Paque Plus. RNA was extracted from PBMCs using RNeasy Plus Kits according to the manufacturer's (Qiagen) protocol. cDNA was reverse transcribed using RT^2 First Strand Kit according to the manufacturer's (Qiagen) protocol. […]
as §1, with “circBRIP1 or linBRIP1 was” for “circBRIP1 is”, “sample. The inhibition activity was calculated by the following formula, whereas: […]” for “sample.”

[3] = Intra-tumoral pharmacokinetics bioanalytical assay; type: in vivo, female BALB/c nude mice; conditions: BID oral, 21 days; four parameter non-linear regression; FIG. 4C
Description: Intra-tumoral Pharmacokinetics Bioanalytical Assay: Tumors were collected at 1 h and 12 h post the last dose and cut into 3 pieces. One piece of the tumor was weighted and snap frozen for drug exposure analysis. On the assay day, 3 volumes of H2O were added to the tumor tissue (3 mL to each gram of tissue), and homogenate at 4 degrees Celsius. The homogenate (30 μL) was mixed with 15 μL blank solution, then extracted and protein precipitation with 200 μL of acetonitrile containing IS (internal standard, dexamethasone). After vortexed for 30 s, the samples were centrifuged at 4 degrees Celsius, 3900 rpm for 15 minutes. The supernatant was diluted 3 times with water and 2 μL of diluted supernatant was injected into the LC/MS/MS system for quantitative analysis (AB API 5500). The Q1 to Q3 mass transition (m/z, Da) were 393.11 to 373.10 for dexamethasone and 421.98 to 202.30 for test compound. […]
The concentration in the homogenate was quantified using standards prepared in control tumor tissues with concentrations range 0.5, 1, 2, 5, 10, 50, 100, 500, 1000 ng/mL. The determined concentration in the tumor homogenate was then back calculated to that in tumor tissue by multiplying with a dilution factor of 4.

[4] = system: frozen PBMCs; experiment: circBRIP1 level in frozen human PBMCs; type: cell-based; conditions: 10 μM, 24 hours, frozen PBMCs from three donors, vs vehicle; FIG. 8A
Description: As proof of concept, circBRIP1 levels were examined in peripheral blood mononuclear cells (PMBCs) using frozen PBMCs from donors after treatment with a DHX9 inhibitor.
Frozen PBMCs were thawed in a 37° C. water bath, washed, and reconstituted in media. The same number of cells were added to each well of 12-well plates and let rest for 2 hours before being subjected to testing conditions. Compound 1 was dissolved in DMSO at 10 mM as a stock solution, and diluted to a desired concentration. Frozen PBMCs from three donors or LS411N cells (positive control) were treated with 10 μM of Compound 1 or control vehicle for 24 hours. The circBRIP1 level was determined using methods essentially as described above.

- correlation of tumor drug exposure to circBRIP1 induction [3]: correlate to circBRIP1 induction
Structure (SMILES): Cc1cccnc1-c1csc(C(=O)Nc2cc(Cl)cc(NS(C)(=O)=O)c2)c1 [Compound 1, N-(3-chloro-5-methanesulfonamidophenyl)-4-(3-methylpyridin-2-yl)thiophene-2-carboxamide]
- circBRIP1 levels [1]: upregulated in breast, ovarian, and lung cell lines
- human circBRIP1 in PBMCs of donor blood [2]: induced the presence of human circBRIP1 in a dose-responsive manner
- linear BRIP1 in PBMCs of donor blood [2]: not significantly changed
- circBRIP1 level in PBMCs [4]: significantly elevated
